Data: patent publication US20210251234A1 (priority 2015, published 2021)
Where two headings read alike, the source gives them in different places.

How the values were obtained:
potato variety Caesar [1] = experiment: Potato tubercle production at harvest; type: in vivo, potato (Solanum tuberosum); conditions: for Total production in Kilograms per parcel, Average: all categories, harvest; for Production in Kilograms per treatment categories: Combined: combined quality category; for Production in Kilograms per treatment categories: First: first quality category; for Production in Kilograms per treatment categories: Third: third quality category
Source text: (§1) The seeding was made on June 10. The potato variety used was Caesar, third-category tubercles were used. A soil application was made to all the treatments when fluoxastrobin fungicides were applied; 2-litters dose or commercial product per hectare, and penfuflen 0.650 litters dose per hectare; in order to prevent Fusarium spp. and/or Rhizoctoniasolani fungus attack. The experimental design used was random blocks with four repetitions; the experimental parcel was formed by four furrows at a distance between furrows of 0.92 m, and 10 meters length. The useful parcel consisted in two central furrows of each experimental parcel. Distance between plants was 0.25 m.
(§2) The applied treatments consisted in an application on the bottom of the furrow when the seeding was taking place, and eleven foliar applications.
Production: In harvest, each treatment production was analyzed, for which two lineal meters were harvested of each experimental parcel central furrows, registering the potato tubercles production for each of the four categories (first, second, third and combined).

Bactericera cockerelli = Bactericera cockerelli population dynamic (adults, nymphs, eggs) in potato field trial; type: in vivo; conditions: for average of registered adults: B. cockerelli adults, four-repetitions average; for B. Cokerelli eggs population average / Average of registered B.cokerelli nymphs: average of four repetitions
Source text: as §1, §2
Bactericera cockerelli, Population Dynamic: Studies on adult psilides, nymphs and eggs were population dynamic were made. For which purpose a count was made before the first foliar application and subsequently after each treatment application. To know the number of adults 20 net traps (with entomologic net) per experimental parcel, in each evaluation. To determine the number of eggs and nymphs, 50 pinnas were evaluated per parcel in each evaluation.

[2] = system: Zebra chip/purple top (Candidatus Liberibacter solanacearum); type: in vivo; conditions: cross cut tubercles, relative to untreated
[3] = system: Zebra chip/purple top (Candidatus Liberibacter solanacearum / Candidatus Phytoplasma americanum); type: in vivo; conditions: relative to untreated treatment 1
[4] = system: Zebra chip (Candidatus Liberibacter solanacearum); type: in vivo; conditions: fried slices, under heading Flake Burning Severity
potato variety Caesar [5] = experiment: Cultivation emergence (germination) in potato field trial; type: in vivo, potato (Solanum tuberosum); conditions: 22 days after seeding, plants emerged in central furrows
Source text: as §1, §2
Emergence: Cultivation emergence was determined; for which the number of plants that emerged in each parcel central furrows was counted at 100% emergence. The data were collected on Jul. 2, 2014 (22 days after seeding).

N#Cc1ccccc1NC(=O)c1snc(Cl)c1Cl [Treatment 3, Isotianil]
Total production in Kilograms per parcel, Average (potato variety Caesar [1]; listed as 3): 17.975 Kilograms per parcel | Production in Kilograms per treatment categories: Combined (potato variety Caesar [1]; listed as 3): 39.8 Kilograms | Production in Kilograms per treatment categories: First (potato variety Caesar [1]; listed as 3): 0 Kilograms | Production in Kilograms per treatment categories: Third (potato variety Caesar [1]; listed as 3): 24.3 Kilograms | average of registered adults (Bactericera cockerelli; 02-Sep., listed as T3): 1.75 | average of registered adults (Bactericera cockerelli; 5-Aug., 20 net traps per parcel, listed as T3): 1 | average of registered adults (Bactericera cockerelli; 08-sep., listed as T3): 0.5 | average of registered adults (Bactericera cockerelli; 12-Aug., listed as T3): 1.25 | average of registered adults (Bactericera cockerelli; 18-Aug., listed as T3): 3.75 | average of registered adults (Bactericera cockerelli; 19-Sep., listed as T3): 4.75 | B. Cokerelli eggs population average (Bactericera cockerelli; 08-sep., listed as T3): 1.25 | B. Cokerelli eggs population average (Bactericera cockerelli; 12-August, listed as T3): 1.5 | Average of registered B.cokerelli nymphs (Bactericera cockerelli; 02-Sep., listed as T3): 4.5 | Average of registered B.cokerelli nymphs (Bactericera cockerelli; 08-sep., listed as T3): 3 | Average of registered B.cokerelli nymphs (Bactericera cockerelli; 12-Aug., listed as T3): 0 | Average of registered B.cokerelli nymphs (Bactericera cockerelli; 18-Aug., listed as T3): 0 | tubercle staining Incidence Control Percentage ([2]; listed as 3): 35.01% | tubercle staining Severity Control Percentage ([2]; listed as 3): 43.13% | Zebra chip/purple top incidence control percentage ([3]; listed as 3): 14.35% | Flake burning Incidence control percentage ([4]; listed as 3): 31.3% | Emergence Percentage (potato variety Caesar [5]; listed as 3): 61.2%

N#Cc1ccccc1NC(=O)c1snc(Cl)c1Cl [Treatment 4, Isotianil]
Total production in Kilograms per parcel, Average (potato variety Caesar [1]; listed as 4): 21.3 Kilograms per parcel | Production in Kilograms per treatment categories: Combined (potato variety Caesar [1]; listed as 4): 37.7 Kilograms | Production in Kilograms per treatment categories: First (potato variety Caesar [1]; listed as 4): 4 Kilograms | Production in Kilograms per treatment categories: Second (potato variety Caesar [1]; second quality category): 7.8 Kilograms | Production in Kilograms per treatment categories: Third (potato variety Caesar [1]; listed as 4): 35.7 Kilograms | average of registered adults (Bactericera cockerelli; 02-Sep., listed as T4): 0.25 | average of registered adults (Bactericera cockerelli; 5-Aug., 20 net traps per parcel, listed as T4): 0.75 | average of registered adults (Bactericera cockerelli; 08-sep., listed as T4): 0 | average of registered adults (Bactericera cockerelli; 12-Aug., listed as T4): 2 | average of registered adults (Bactericera cockerelli; 18-Aug., listed as T4): 1 | average of registered adults (Bactericera cockerelli; 19-Sep., listed as T4): 2.75 | B. Cokerelli eggs population average (Bactericera cockerelli; 02-Sep.): 0 | B. Cokerelli eggs population average (Bactericera cockerelli; 5-August, 50 pinnas per parcel): 0 | B. Cokerelli eggs population average (Bactericera cockerelli; 08-sep., listed as T4): 0.75 | B. Cokerelli eggs population average (Bactericera cockerelli; 12-August, listed as T4): 4.5 | B. Cokerelli eggs population average (Bactericera cockerelli; 18-August): 0 | B. Cokerelli eggs population average (Bactericera cockerelli; 19-Sep.): 0 | Average of registered B.cokerelli nymphs (Bactericera cockerelli; 02-Sep., listed as T4): 13.75 | Average of registered B.cokerelli nymphs (Bactericera cockerelli; 5-Aug., 50 pinnas per parcel): 0 | Average of registered B.cokerelli nymphs (Bactericera cockerelli; 08-sep., listed as T4): 0 | Average of registered B.cokerelli nymphs (Bactericera cockerelli; 12-Aug., listed as T4): 2.25 | Average of registered B.cokerelli nymphs (Bactericera cockerelli; 18-Aug., listed as T4): 0.25 | Average of registered B.cokerelli nymphs (Bactericera cockerelli; 19-Sep.): 0 | tubercle staining Incidence Control Percentage ([2]; listed as 4): 63.35% | tubercle staining Severity Control Percentage ([2]; listed as 4): 74.50% | Zebra chip/purple top incidence control percentage ([3]; listed as 4): 62.65% | Flake burning Incidence control percentage ([4]; listed as 4): 54% | Emergence Percentage (potato variety Caesar [5]; listed as 4): 71.8%
